Series [1] concerns the target T1, cIAP1 BIR3 domain (residues 253-363) (Homo sapiens, UniProt Q13490).
T1 construct: The recombinant cIAP1 BIR3 domain (residues 253-363); His-tag
Nature of the series: Fluorescence polarization competitive binding assay to cIAP1 BIR3. As to conditions: FP competitive binding, SM5F or SM-F1 as the tracer. How it is done: (§1) In order to test the binding ability of conformationally constrained Smac mimetics to other IAP proteins (cIAP1 and cIAP2) binding assay conditions were developed. The recombinant cIAP1 BIR3 domain (residues 253-363), cIAP2 BIR3 domain (residues 238-349), fused to a His-tag, were used in the binding assays. Competitive binding assays for other IAP proteins are performed similarly as that described for XIAP BIR3.
(§2) In competitive binding experiments using SM5F as the tracer to cIAP-1 BIR3 protein, the tested compound was incubated with cIAP-1 BIR3 protein (10 nM) and SM5F (2 nM) in the assay buffer. In competitive binding experiments using SM5F as the tracer to cIAP-2 BIR3 protein, the tested compound was incubated with cIAP-2 BIR3 protein (25 nM) and SM5F (2 nM) in the assay buffer. All other procedures for cIAP-1 BIR3 and cIAP-2 BIR3 proteins were the same as those used for XIAP BIR3 protein competitive assays.
(§3) In competitive binding experiments using SM-F1 as the tracer to cIAP-1 BIR3 protein, the tested compound was incubated with cIAP-1 BIR3 protein (3 nM) and SM-F1 (1 nM) in the assay buffer. In competitive binding experiments using SM-F1 as the tracer to cIAP-2 BIR3 protein, the tested compound was incubated with cIAP-2 BIR3 protein (5 nM) and SM-F1 (1 nM) in the assay buffer.
Background: Polarisation of emitted light reports the rotation of a fluorescent probe.

For a further series, the target named is XIAP BIR3 protein (Homo sapiens, UniProt P98170). Nature of the series: Fluorescence polarization competitive binding assay to XIAP BIR3. Particulars: FP competitive binding, SM5F or SM-F1 as the tracer.
Excerpt: A sensitive and quantitative in vitro binding assay using the fluorescence polarization (FP) based method was used to determine the binding affinity of Smac mimetics to XIAP protein (Nikolovska-Coleska et al., Anal. Biochem. 332:261-73 (2004)). For this assay, 5-carboxyfluorescein (5-Fam) was coupled to the lysine side chain of the mutated Smac peptide, AbuRPF-K-(5-Fam)-NH2 (termed SM5F). Another fluorescently tagged Smac mimetic (termed SM-F1) with higher affinities than SM5F was also used.
(§4) In competitive binding experiments using SM5F as the tracer to XIAP BIR3 protein, the tested compound was incubated with XIAP BIR3 protein (30 nM) and SM5F (5 nM) in the assay buffer (100 mM potassium phosphate, pH 7.5; 100 μg/ml bovine gamma globulin; 0.02% sodium azide, Invitrogen). Dose-dependent competitive binding FP experiments were carried out with serial dilutions of tested compounds. For each assay, the bound peptide control containing recombinant XIAP BIR3 protein and SM5F (equivalent to 0% inhibition) and free peptide control containing only free SM5F (equivalent to 100% inhibition) will be included. The polarization values were measured after 3 hrs of incubation when the binding reached equilibrium using an ULTRA READER (Tecan U.S. Inc., Research Triangle Park, N.C.). IC50 values, the inhibitor concentration at which 50% of bound peptide is displaced, will be determined from a plot using nonlinear least-squares analysis. Curve fitting will be performed using GRAPHPAD PRISM software (GraphPad Software, Inc., San Diego, Calif.).
as §4, with “using SM-F1” for “using SM5F”, “protein (10” for “protein (30”, “and SM-1F (2” for “and SM5F (5”, “and SM-1F” for “and SM5F”, “free SM-1F” for “free SM5F”
Negative controls containing protein/tracer complex only (equivalent to 0% inhibition), and positive controls containing only free tracers (equivalent to 100% inhibition), were included in each assay plate. FP values were measured as described above. IC50 values were determined by nonlinear regression fitting of the competition curves. The Ki values of competitive inhibitors were calculated using the equation described before (Nikolovska-Coleska et al., Anal. Biochem. 332:261-73 (2004)), based upon the measured IC50 values, the Kd values of the tracer to different proteins, and the concentrations of the proteins and tracers in the competitive assays. Ki values were also calculated using a commonly used equation known in the literature (Huang, X. J. Biomol. Screen. 8:34-38 (2003)).

In series [2] the target is T2, cIAP2 BIR3 domain (residues 238-349) (Homo sapiens, UniProt Q13489).
T2 construct: cIAP2 BIR3 domain (residues 238-349); His-tag
Put plainly: Fluorescence polarization competitive binding assay to cIAP2 BIR3. As to conditions: FP competitive binding, SM5F or SM-F1 as the tracer. How it is done:
as §1, §2, §3

The test system of series [3] is MDA-MB-231 human breast cancer cell line. Put plainly: Cell growth inhibition, WST-8 assay. The class given is cell-based. Particulars: MDA-MB-231, 96 h, 4 days. Here is the method:
(§5) The effect of the compounds of the present invention on the growth of various cancer cell lines was tested. Cells were seeded in 96-well flat bottom cell culture plates at a density of 3000 cells/well with a tested compound and incubated at 37° C. in an atmosphere of 95% air and 5% CO2 for 4 days. The rate of cell growth inhibition after treatment with different concentrations of the compound was determined using a WST-8 kit (2-(2-methoxy-4-nitrophenyl)-3-(4-nitrophenyl)-5-(2, 4 disulfophenyl)-2H-tetrazolium monosodium salt; Dojindo Molecular Technologies, Inc., Gaithersburg, Md.). WST-8 was added at a final concentration of 10% to each well, and then the plates were incubated at 37° C. for 2-3 hrs. The absorbance of the samples was measured at 450 nm using a ULTRA Tecan Reader (Molecular Device). The concentration of the tested compound that inhibited cell growth by 50% (IC50) was calculated by comparing absorbance in untreated cells and the cells treated with the tested compound.
Background: Formazan colour is commonly taken as a measure of viable cells.

Series [4] concerns SK-OV-3 ovarian cancer cell line. Put plainly: Cell growth inhibition, WST-8 assay. The series is classed as cell-based. Particulars: Homo sapiens, SK-OV-3, 96 h, 4 days. Here is the method: as §5
Series [5] is described as follows: Pharmacokinetics in rats following oral administration. As to conditions: rat, in vivo, male Sprague-Dawley rats, 25 mg/kg, mean±SD.

Each structure is given as a SMILES string.

T1 sequence (Q13490 253-363): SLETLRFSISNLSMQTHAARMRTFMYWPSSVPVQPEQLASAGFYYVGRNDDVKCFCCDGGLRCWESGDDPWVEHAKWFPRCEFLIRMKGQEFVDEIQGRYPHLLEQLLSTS
XIAP BIR3 protein, sequence (P98170 241-356 limits assumed): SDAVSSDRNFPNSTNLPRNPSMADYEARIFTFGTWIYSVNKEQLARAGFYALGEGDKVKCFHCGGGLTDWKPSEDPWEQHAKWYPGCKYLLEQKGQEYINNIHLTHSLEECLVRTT
T2 sequence (Q13489 238-349): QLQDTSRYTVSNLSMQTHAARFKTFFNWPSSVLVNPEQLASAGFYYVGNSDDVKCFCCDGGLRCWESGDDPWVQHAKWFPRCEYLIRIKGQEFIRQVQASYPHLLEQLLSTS

In the case of `CN[C@@H](C)C(=O)N[C@H]1CCCC[C@H]2CC[C@@H](c3nc4c(-c5ccccc5)cccc4[nH]3)N2C1=O` [SM-1237], the IC50 – broadly, the midpoint of a concentration-inhibition curve – in series [1] was less than 100 nM; on XIAP BIR3 protein, less than 200 nM; in series [2], less than 100 nM; in series [3] it was less than 3000 nM; in series [4] it was less than 3000 nM.

As for `CN[C@@H](C)C(=O)N[C@H]1CN(C(=O)Cc2ccc(F)cc2)CC[C@H]2CC[C@@H](c3nc4c(-c5cccc(F)c5)cccc4[nH]3)N2C1=O` [SM-1306], the IC50 in series [1] was less than 100 nM; at XIAP BIR3 protein, less than 5000 nM; in series [2], less than 100 nM; in series [3], less than 3000 nM; in series [4] it was less than 3000 nM.

With `CN[C@@H](C)C(=O)N[C@H]1CN(C(=O)CC(C)C)CC[C@H]2CC[C@@H](c3nc4c(-c5ccc(F)cc5)cccc4[nH]3)N2C1=O` [SM-1316], the half-maximal inhibitory concentration (IC50) was less than 100 nM in series [1]; less than 500 nM on XIAP BIR3 protein; less than 100 nM in series [2]; less than 3000 nM in series [3]; less than 3000 nM in series [4]. Further, the AUC(0-inf) (in general, the area under the concentration-time curve extrapolated to infinity) in series [5] (n=3) was 14300 ± 1970 ng·h/mL. The Cmax (as a rule, the highest concentration seen after dosing) in series [5] (n=3) is 1530 ± 275 ng/mL. For the same compound, the Tmax (in general, the time at which the peak concentration occurs) in series [5] (n=3) came out at 2 h. In addition, the half-life (as a rule, the time in which the quantity being followed falls by half) in series [5] (n=3, read-out: half-life (T½) (converted)) is 6.7 ± 1.2 h.

With `CN[C@@H](C)C(=O)N[C@H]1CN(C(=O)Cc2ccccc2)CC[C@H]2CC[C@@H](c3nc4c(-c5ccc(F)cc5)cccc4[nH]3)N2C1=O` [SM-1317], the IC50 in series [1] was less than 100 nM; on XIAP BIR3 protein, less than 500 nM; in series [2], less than 100 nM; in series [3], less than 3000 nM; in series [4], less than 3000 nM.

`CN[C@@H](C)C(=O)N[C@H]1CN(C(=O)Cc2ccc(F)cc2)CC[C@H]2CC[C@@H](c3nc4c(-c5ccc(F)cc5)cccc4[nH]3)N2C1=O` [SM-1307]: the IC50 in series [1] was less than 100 nM; at XIAP BIR3 protein, less than 500 nM; in series [2] it was less than 100 nM; in series [3], less than 3000 nM; in series [4] it was less than 3000 nM.

On to `CN[C@@H](C)C(=O)N[C@H]1CCCC[C@H]2CC[C@@H](c3nc(-c4ccccc4)cs3)N2C1=O` [SM-1229], for which the IC50 in series [1] is less than 2000 nM; on XIAP BIR3 protein it was less than 5000 nM; in series [2], less than 2000 nM; in series [3] it was less than 100000 nM; in series [4], less than 100000 nM.

`CN[C@@H](C)C(=O)N[C@H]1CN(C(=O)CC(C)C)CC[C@H]2CC[C@@H](c3nc(-c4ccccc4)cs3)N2C1=O` [SM-1235]: the IC50 in series [1] is less than 1000 nM; at XIAP BIR3 protein, less than 200 nM; in series [2], less than 1000 nM; in series [3], less than 3000 nM; in series [4] it was less than 3000 nM.

In the case of `CN[C@@H](C)C(=O)N[C@H]1CN(C(=O)Cc2ccccc2)CC[C@H]2CC[C@@H](c3nc4c(-c5ccccc5)cccc4[nH]3)N2C1=O` [SM-1257], the IC50 in series [1] is less than 100 nM; at XIAP BIR3 protein it was less than 500 nM; in series [2] it was less than 100 nM; in series [3], less than 3000 nM; in series [4], less than 3000 nM.

Take `CN[C@@H](C)C(=O)N[C@H]1CN(C(=O)Cc2ccc(F)cc2)CC[C@H]2CC[C@@H](c3nc4c(-c5ccccc5F)cccc4[nH]3)N2C1=O` [SM-1308]: the IC50 in series [1] was less than 100 nM; on XIAP BIR3 protein it was less than 500 nM; in series [2], less than 100 nM; in series [3], less than 3000 nM; in series [4], less than 3000 nM.

Regarding `CN[C@@H](C)C(=O)N[C@H]1CN(C(=O)CCc2ccccc2)CC[C@H]2CC[C@@H](c3nc4c(-c5ccccc5)cccc4[nH]3)N2C1=O` [SM-1270], the concentration for half-maximal inhibition (IC50) in series [1] is less than 100 nM; at XIAP BIR3 protein, less than 500 nM; in series [2] it was less than 100 nM; in series [3] it was less than 3000 nM; in series [4], less than 3000 nM.

For the compound `CN[C@@H](C)C(=O)N[C@H]1CN(C(=O)CCc2ccc(F)cc2)CC[C@H]2CC[C@@H](c3nc4c(-c5ccccc5)cccc4[nH]3)N2C1=O` [SM-1271], the IC50 is less than 100 nM in series [1]; less than 500 nM at XIAP BIR3 protein; less than 100 nM in series [2]; less than 3000 nM in series [3]; less than 3000 nM in series [4].

The record behind these values is patent US8445473B2, “Heteroaryl-substituted bicyclic Smac mimetics and the uses thereof” (The Regents of the University of Michigan, priority 2008, dated 2013).
